Data taken from patent US5373009A, “Dibenzofuranyl esters of N-heterocyclic carboxylic acids” (priority 1994, dated 1994).
pIC50: −log10 of the molar value.

How the values were obtained:
CEH = conditions: prior art statement; cited from earlier work
[1] = biological target: T1, cholesterol ester hydrolase (CEH) (Bos taurus, UniProt P30122); experiment: In vitro inhibition of cholesteryl ester formation by cholesterol esterase (CEH); format: biochemical; conditions: 37° C.; cholesterol and oleic acid; cholesterol esterase from bovine pancreas
T1 construct: purchased Sigma Company, St. Louis, Mo., U.S.A. C-1892; host or cells: bovine pancreas
Description: The ability of the compounds of this invention to inhibit the formation of cholesteryl esters and thereby interfere with and prevent assimilation of cholesterol into the lymphatic system and ultimately the blood stream was established by incubating the compounds at 37° C. with a mixture of cholesterol and oleic acid in the presence of buffered cholesterol esterase [(EC 3.1.1.13) Sigma Company, St. Louis, Mo., U.S.A., No. C-1892, from bovine pancreas] and measuring the amount of ester formed, according to the procedure of Field, J. of Lipid Research, 25, 389 (1984).

[2] = system: absorption of 14C-cholesterol; experiment: In vivo cholesterol absorption in normal rats (serum radioactivity after oral [4-14C] cholesterol); conditions: serum radioactivity at 6 hr, vs control
Description: The in vivo cholesterol absorption studies were conducted in normal rats by oral administration of the compound being tested in propylene glycol and olive oil followed by oral administration of [4-^14 C] cholesterol in propylene glycol and olive oil, otherwise following the procedure of Cayen et al., J. Lipid Res. 20, 162 (1979). The serum radioactivity was measured at six hours after dosing. The results of this study are reported in Table I as percent decrease compared to control.

T1 sequence (P30122 19-597): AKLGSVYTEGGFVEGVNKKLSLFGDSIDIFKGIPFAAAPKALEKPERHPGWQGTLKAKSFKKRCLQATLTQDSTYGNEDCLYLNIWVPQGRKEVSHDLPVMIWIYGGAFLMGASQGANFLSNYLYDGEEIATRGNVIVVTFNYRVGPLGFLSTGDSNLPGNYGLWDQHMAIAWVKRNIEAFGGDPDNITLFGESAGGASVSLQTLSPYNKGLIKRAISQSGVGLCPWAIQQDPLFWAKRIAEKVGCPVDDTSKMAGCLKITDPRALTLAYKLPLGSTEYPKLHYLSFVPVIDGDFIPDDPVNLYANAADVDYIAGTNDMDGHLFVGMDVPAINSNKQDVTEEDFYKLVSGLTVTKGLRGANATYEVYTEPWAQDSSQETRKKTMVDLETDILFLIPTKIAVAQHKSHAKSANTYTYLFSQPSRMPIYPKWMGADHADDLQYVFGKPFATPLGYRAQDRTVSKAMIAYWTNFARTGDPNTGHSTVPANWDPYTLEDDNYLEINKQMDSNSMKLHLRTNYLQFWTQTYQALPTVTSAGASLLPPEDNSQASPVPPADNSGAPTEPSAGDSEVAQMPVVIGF

Compound	CEH inhibitor (in words) (CEH)	pIC50 [1]	Effect on Absorption of ^14 C-chol-6 hr-normal rat, % Decrease ([2]; 10 mg/kg) [%]	Effect on Absorption of ^14 C-chol-6 hr-normal rat, % Decrease ([2]; 3 mg/kg) [%]
CNC(=O)OC1CCN(C(=O)Oc2ccc(Oc3ccccc3)cc2)CC1 [4-[[methylamino)carbonyl]oxy]-1-piperidinecarboxylic acid 4-phenoxyphenyl ester]	CEH inhibitor			
O=C(Oc1ccc2oc3ccccc3c2c1)N1CCSCC1 [Example 2, 4-Thiomornholinecarboxylic acid 2-dibenzofuranyl ester]		6.29	16	
CC1(C)CCN(C(=O)Oc2ccc3oc4ccccc4c3c2)CC1 [Example 3, 4,4-Dimethyl-1-piperidinecarboxylic acid 2-dibenzofuranyl ester]		5.19		44
O=C(Oc1ccc2oc3ccccc3c2c1)N1CCC2(CCCC2)CC1 [Example 4, 8-Azaspiro[4,5]decane-8-carboxylic acid 2-dibenzofuranyl ester]		4.82		55
